Assay results: patent US8048825B2, “Haloalkylsulfonanilide derivatives or salt thereof, herbicide comprising the derivatives as active ingredient, and use of the herbicide” (Nihon Nohyaku Co., Ltd., priority 2006, dated 2011)

Experiments:
[1] = tested on: transplanted paddy-rice (rice species: Nihonbare); assay: Test of phytotoxicity on transplanted paddy-rice, Test Example 3; assay type: in vivo; conditions: two-leaf stage seedlings, 1000 g/ha as active ingredient, applied 5 days after transplantation, examined after 21 days
Text: Criteria for herbicidal efficacy (growth inhibiting degree) and phytotoxicity. • 5 . . . 100% herbicidal effect, phytotoxicity. • 4 . . . 90%-99% herbicidal effect, phytotoxicity. • 3 . . . 70%-89% herbicidal effect, phytotoxicity. • 2 . . . 40%-69% herbicidal effect, phytotoxicity. • 1 . . . 1%-39% herbicidal effect, phytotoxicity. • 0 . . . 0% herbicidal effect, phytotoxicity.
75 cm^2 plastic pots were filled with the soil (clay loam) and filled with water depth of 5 cm and 2 rice plant seedlings (rice species: Nihonbare) at two-leaf stage were transplanted therein. They were brought up in a greenhouse and, after five days from the transplantation, predetermined effective dosage (1000 g/ha in terms of active ingredient) of formulations comprising a compound of the present invention as an active ingredient was applied to the pot water. Then, they were brought up in a greenhouse and the phytotoxicity was examined after 21 days from the treatment by comparing with the result of an untreated group according to the criteria of Test Example 1. In the table, “-” means that the test was not performed.

Lindernia procumbens [2] = assay: Herbicidal efficacy on paddy field weeds of pre-emergence stage (Pre), Test Example 1; assay type: in vivo; conditions: 1000 g/ha as active ingredient, examined after 21 days
Outline: (§1)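 Pre-emergence paddy test: 1000 g/ha active ingredient, formulated and water-diluted, dropped onto 5 cm floodwater one day after sowing both weeds in clay loam. After 21 days in greenhouse, inhibition relative to untreated control rated on 0 (0%) to 5 (100%) scale.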

Scirpus juncoides [3] = assay: as above; assay type: in vivo; conditions: 1000 g/ha as active ingredient, examined after 21 days
Outline: as §1

Scirpus juncoides [4] = assay: Herbicidal effect on paddy field weeds of post-emergence stage (Post), Test Example 2; assay type: in vivo; conditions: one-leaf stage, 1000 g/ha as active ingredient, examined after 21 days
Outline: (§2)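 Post-emergence paddy test: formulated compound added to 5 cm standing water at 1000 g/ha a.i. when weeds reached one-leaf stage in clay loam pots in greenhouse. Growth inhibition rated 21 days later versus untreated control on a 0 (0%) to 5 (100%) scale.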

Lindernia procumbens [5] = assay: Herbicidal effect on paddy field weeds of post-emergence stage (Post), Test Example 2; assay type: in vivo; conditions: one-leaf stage, 1000 g/ha as active ingredient, examined after 21 days
Outline: as §2

Echinochloa crus-galli = assay: as above; assay type: in vivo; conditions: one-leaf stage, 1000 g/ha as active ingredient, examined after 21 days
Outline: as §2

Row | melting point | SMILES | Rice (phytotoxicity) [1] | Lindernia procumbens pre (herbicidal effect) (Lindernia procumbens [2]) | Scirpus juncoides pre (herbicidal effect) (Scirpus juncoides [3]) | Scirpus juncoides post (herbicidal effect) (Scirpus juncoides [4]) | Lindernia procumbens post (herbicidal effect) (Lindernia procumbens [5]) | Echinochloa crus-galli post (herbicidal effect) (Echinochloa crus-galli)
1 | – | COC(=O)N(c1ccccc1CN1CC(C)(C)COC1=S)S(=O)(=O)C(F)(F)F [Compound No. 1-35, 5,5-dimethyl-3-(2-[N-(methoxycarbonyl)-N-(trifluoromethanesulfonyl)amino]benzyl)-[1,3]-oxazinane-2-thione] | 2 (40%-69% herbicidal effect, phytotoxicity) | 4 (90%-99% herbicidal effect, phytotoxicity) | 4 (90%-99% herbicidal effect, phytotoxicity) | 4 (90%-99% herbicidal effect, phytotoxicity) | – | –
2 | 152 °C | O=C1OC(c2ccccc2)CCN1Cc1ccccc1NS(=O)(=O)C(F)(F)F (centres unmarked) [Compound No. 1-239, 6-phenyl-3-[2-(trifluoromethanesulfonylamino)benzyl]-[1,3]-oxazinan-2-one] | – | 5 (100% herbicidal effect, phytotoxicity) | – | 4 (90%-99% herbicidal effect, phytotoxicity) | – | –
3 | 115.6 °C | CCOCN(c1ccccc1CN1CCC(c2ccccc2)OC1=O)S(=O)(=O)C(F)(F)F (centres unmarked) [Compound No. 1-248, 6-phenyl-3-{2-[N-(ethoxymethyl)-N-(trifluoromethanesulfonyl)amino]benzyl)-[1,3]-oxazinan-2-one] | – | – | – | – | – | –
4 | – | CCCOC(=O)N(c1ccccc1CN1CCCOC1=O)S(=O)(=O)C(F)(F)F [Compound No. 1-4, 3-{2-[N-(propoxycarbonyl)-N -(trifluoromethanesulfonyl)amino]benzyl)-[1,3]-oxazinan-2-one] | 3 (70%-89% herbicidal effect, phytotoxicity) | 4 (90%-99% herbicidal effect, phytotoxicity) | 4 (90%-99% herbicidal effect, phytotoxicity) | 4 (90%-99% herbicidal effect, phytotoxicity) | – | –
5 | – | CC(C)COC(=O)N(c1ccccc1CN1CCC(C)COC1=O)S(=O)(=O)C(F)(F)F (centres unmarked) [Compound No. 2-28, 3-(2-[N-(isobutoxycarbonyl)-N-(trifluoromethanesulfonyl)amino]benzyl)-6-methyl-[1,3]-oxazepan-2-one] | 3 (70%-89% herbicidal effect, phytotoxicity) | 4 (90%-99% herbicidal effect, phytotoxicity) | 4 (90%-99% herbicidal effect, phytotoxicity) | 4 (90%-99% herbicidal effect, phytotoxicity) | – | –
6 | 129.9 °C | CC1(C)COC(=S)N(Cc2ccccc2NS(=O)(=O)C(F)(F)F)C1 [Compound No. 1-34, 5,5-dimethyl-3-[2-(trifluoromethanesulfonylamino)benzyl]-[1,3]-oxazinan-2-thione] | – | 4 (90%-99% herbicidal effect, phytotoxicity) | 4 (90%-99% herbicidal effect, phytotoxicity) | 4 (90%-99% herbicidal effect, phytotoxicity) | – | –
7 | – | CCCCCOC(=O)N(c1ccccc1CN1CCC(C)(C)OC1=O)S(=O)(=O)C(F)(F)F [Compound 1-52] | – | 4 (90%-99% herbicidal effect, phytotoxicity) | 4 (90%-99% herbicidal effect, phytotoxicity) | 4 (90%-99% herbicidal effect, phytotoxicity) | 4 (90%-99% herbicidal effect, phytotoxicity) | 4 (90%-99% herbicidal effect, phytotoxicity)
8 | – | CC(C)COC(=O)N(c1ccccc1CN1CCC(C)(C2CC2)OC1=O)S(=O)(=O)C(F)(F)F (centres unmarked) [Compound 1-130] | – | 4 (90%-99% herbicidal effect, phytotoxicity) | 4 (90%-99% herbicidal effect, phytotoxicity) | 4 (90%-99% herbicidal effect, phytotoxicity) | 4 (90%-99% herbicidal effect, phytotoxicity) | 4 (90%-99% herbicidal effect, phytotoxicity)
9 | – | CCC1(C(F)(F)F)CCN(Cc2ccccc2N(C(=O)OCC(C)C)S(=O)(=O)C(F)(F)F)C(=O)O1 (centres unmarked) [Compound 1-96] | – | 5 (100% herbicidal effect, phytotoxicity) | 4 (90%-99% herbicidal effect, phytotoxicity) | 4 (90%-99% herbicidal effect, phytotoxicity) | 5 (100% herbicidal effect, phytotoxicity) | 4 (90%-99% herbicidal effect, phytotoxicity)
